Structures are written as SMILES.

The values below come from US12351574B2, “Selective ligands for modulation of GIRK channels” (Northeastern University, priority 2018, dated 2025).

For this assay, the target named is T1, GIRK1-S65A with GIRK2 (UniProt P48542+P48549, S65A).
T1 construct: expressed in transfected cells; host or cells: HEK293 cells
T1 sequence (P48549 1-501 S65A): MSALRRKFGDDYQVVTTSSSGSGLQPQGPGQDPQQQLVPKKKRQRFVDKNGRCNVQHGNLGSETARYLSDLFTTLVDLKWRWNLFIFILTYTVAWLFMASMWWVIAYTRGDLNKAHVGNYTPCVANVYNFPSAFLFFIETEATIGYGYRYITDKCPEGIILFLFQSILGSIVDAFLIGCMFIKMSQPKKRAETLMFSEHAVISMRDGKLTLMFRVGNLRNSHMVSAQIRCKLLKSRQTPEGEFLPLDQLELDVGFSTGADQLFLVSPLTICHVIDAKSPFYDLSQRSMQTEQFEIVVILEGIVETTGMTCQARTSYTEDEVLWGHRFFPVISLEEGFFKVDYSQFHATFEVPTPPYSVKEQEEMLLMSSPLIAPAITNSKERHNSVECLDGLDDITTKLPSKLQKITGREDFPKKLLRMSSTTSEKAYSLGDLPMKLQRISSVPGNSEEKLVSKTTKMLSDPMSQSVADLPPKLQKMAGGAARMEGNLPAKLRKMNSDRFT
T1 sequence (P48542 1-425): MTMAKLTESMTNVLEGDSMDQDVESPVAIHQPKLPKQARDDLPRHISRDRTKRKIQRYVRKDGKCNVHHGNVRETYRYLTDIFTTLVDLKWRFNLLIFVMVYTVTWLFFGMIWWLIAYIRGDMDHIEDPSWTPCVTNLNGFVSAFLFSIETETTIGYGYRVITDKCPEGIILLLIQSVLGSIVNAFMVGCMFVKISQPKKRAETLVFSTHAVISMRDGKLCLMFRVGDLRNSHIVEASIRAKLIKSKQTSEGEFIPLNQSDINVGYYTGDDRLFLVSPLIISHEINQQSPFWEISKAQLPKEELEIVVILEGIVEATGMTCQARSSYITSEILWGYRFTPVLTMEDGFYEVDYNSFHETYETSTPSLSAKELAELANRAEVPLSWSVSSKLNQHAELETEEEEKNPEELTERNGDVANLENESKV
In words: 5-ptaseOCRL current inhibition, GIRK1/2 channels containing GIRK1-S65A subunits. It counts as cell-based, human GIRK1, mouse GIRK2. Conditions: 10 μM GAT1508. The source says: To identify changes in specific channel residue interactions with PIP2 upon ligand binding, the inventors carried out Principal Component Analysis (PCA) in the presence and absence of ML297 and GAT1508. The PCA analysis implicated changes in the slide (or interfacial) helix interactions with PIP2 upon ligand binding. Polar interactions could be formed between GIRK2^FD(Y76) and GIRK4^FD(Y71) with the P(4,5) of PIP2 when ML297 was bound to the same subunit (FIG. 39 top, FIG. 40). In contrast, when GAT1508 was bound this interaction was retained by GIRK2^FD but not GIRK4^FD (FIG. 39 bottom, FIG. 40). The corresponding GIRK1(S65) residue (FIG. 41, highlighted with vertical rectangle) could be serving the same role in stabilizing the phosphoinositol headgroup for interactions with non-ligand binding subunits. As polar residues, both Ser and Tyr could form H-bond interactions with PIP2. […]
Patch-clamp recording: Whole-cell currents were recorded with an Axopatch 200B amplifier (Molecular Devices) controlled via a USB-interface (National Instruments) using WinWCP software (University of Strathclyde). […] The barium-sensitive component of the current, observed when cells were perfused with the high-K^+ buffer, was analyzed and was determined by perfusing 5 mM BaCl2 in the high-K^+ buffer at the end of each experiment. […]

With `Cc1cc(NC(=O)Nc2ccc(Br)s2)n(-c2ccccc2)n1` [GAT1508, 1-(5-bromothiophen-2-yl)-3-(3-methyl-1-phenyl-1H-pyrazol-5-yl)urea], the “protection of current from 5-ptaseOCRL (in words)” value is on record as “not protected”.
